According to article PMC6277198, “Molecular basis for activation of lecithin:cholesterol acyltransferase by a compound that increases HDL cholesterol” (eLife, 2018):
Residue numbers refer to the chain shown, from its start. Values joined by “and” are separate entries in the source; they are usually repeats but may differ in a detail not shown here. Identical values can stand only once. Like-named read-outs stand apart in the source and are kept apart here.

Columns and labels:
Test in all cases: MUP hydrolysis (esterase) assay
Assay type in all cases: biochemical
WT LCAT = biological target: T1, WT LCAT (Homo sapiens, UniProt P04180); design: hydrolysis of 4-methylumbelliferyl palmitate (MUP) by full-length LCAT; made in house; host or cells: HEK293F (transient transfection, secreted)
T1 sequence (P04180 25-440): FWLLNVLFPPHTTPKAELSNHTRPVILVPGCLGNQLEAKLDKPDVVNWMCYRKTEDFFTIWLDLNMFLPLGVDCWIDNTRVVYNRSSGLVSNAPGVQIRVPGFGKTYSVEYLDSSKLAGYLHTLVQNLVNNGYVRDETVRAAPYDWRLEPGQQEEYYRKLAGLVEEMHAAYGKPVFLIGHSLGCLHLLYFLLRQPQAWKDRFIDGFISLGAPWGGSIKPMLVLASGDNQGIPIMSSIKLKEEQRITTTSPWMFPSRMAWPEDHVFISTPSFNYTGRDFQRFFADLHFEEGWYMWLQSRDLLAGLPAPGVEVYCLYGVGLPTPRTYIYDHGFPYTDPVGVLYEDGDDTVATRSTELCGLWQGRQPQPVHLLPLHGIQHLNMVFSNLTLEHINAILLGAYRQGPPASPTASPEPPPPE
Procedure: (§1) The lipase activity of LCAT was measured using MUP as a substrate. The assay was performed at room temperature in 0.1 M sodium phosphate buffer, pH 7.4 containing 0.01% Triton X-100. 4 μL of LCAT (6 nM final concentration) were dispensed into a 1536-well Greiner solid black plate. The same volume of assay buffer was dispensed into column 1 and 2 for a no-enzyme control. […] After 15 min incubation, 2 μL MUP (16 μM final concentration) was added to initiate the reaction. The hydrolysis of MUP was monitored using a ViewLux plate reader (excitation 380 nm/emission 450 nm) for 20 min. The fluorescence signal was normalized against no-activator and no-enzyme control after subtraction of background signal (t = 0 min). To plot percent activation, in each assay 100% was set at the rate of LCAT or LCAT variant without compound. The resulting data were fitted to a sigmoidal dose response curve.

LCAT R244H = biological target: T2, LCAT R244H (Homo sapiens, UniProt P04180, R268H)
T2 construct: hydrolysis of 4-methylumbelliferyl palmitate (MUP) by full-length LCAT; made in house; host or cells: HEK293F (transient transfection, secreted)
T2 sequence (P04180 25-440 R268H): T1 sequence (P04180 25-440) with R244H
Procedure: (§2) The lipase activity of LCAT was measured using MUP as a substrate. The assay was performed at room temperature in 0.1 M sodium phosphate buffer, pH 7.4 containing 0.01% Triton X-100. 4 μL of LCAT (6 nM final concentration) were dispensed into a 1536-well Greiner solid black plate. The same volume of assay buffer was dispensed into column 1 and 2 for a no-enzyme control. Then 23 nL DMSO or compounds titrated at 11-point 1:3 dilution series starting at 10 mM were transferred using a pintool. After 15 min incubation, 2 μL MUP (16 μM final concentration) was added to initiate the reaction. The hydrolysis of MUP was monitored using a ViewLux plate reader (excitation 380 nm/emission 450 nm) for 20 min. The fluorescence signal was normalized against no-activator and no-enzyme control after subtraction of background signal (t = 0 min). To plot percent activation, in each assay 100% was set at the rate of LCAT or LCAT variant without compound. The resulting data were fitted to a sigmoidal dose response curve.

LCAT R244A = biological target: T3, LCAT R244A (Homo sapiens, UniProt P04180, R268A)
T3 construct: hydrolysis of 4-methylumbelliferyl palmitate (MUP) by full-length LCAT; made in house; host or cells: HEK293F (transient transfection, secreted)
T3 sequence (P04180 25-440 R268A): T1 sequence (P04180 25-440) with R244A
Procedure: as §2

LCAT G71I = biological target: T4, LCAT G71I (Homo sapiens, UniProt P04180, G95I); settings: compound titrated from 0.04 to 9.5 μM
T4 construct: hydrolysis of 4-methylumbelliferyl palmitate (MUP) by full-length LCAT; made in house; host or cells: HEK293F (transient transfection, secreted)
T4 sequence (P04180 25-440 G95I): T1 sequence (P04180 25-440) with G71I
Procedure: as §1

[1] = WT, compound titrated from 0.04 to 9.5 μM
[2] = WT, compound titrated from 0.04 to 9.5 μM, read-out: MUP assay EC50
[3] = compound titrated from 0.04 to 9.5 μM
[4] = compound titrated from 0.04 to 9.5 μM, read-out: MUP assay EC50
[5] = read-out: EC50, MUP esterase assay

SMILES | Fold activation, MUP esterase assay (WT LCAT; [1]) | EC50 (WT LCAT; [2]) [nM] | Fold activation, MUP esterase assay (LCAT R244H; [3]) | EC50 (LCAT R244H; [4]) [nM] | Fold activation, MUP esterase assay (LCAT R244A; [3]) | EC50 (LCAT R244A; [4]) [nM] | EC50 (LCAT G71I) [nM] | Fold activation, MUP esterase assay (LCAT G71I) | MUP assay EC50 (WT LCAT; [1]) | MUP assay EC50 (LCAT R244H; [3]) | MUP assay EC50 (LCAT R244A; [3]) | MUP assay EC50 (LCAT G71I) | EC50 (WT LCAT; full-length WT LCAT, read-out: EC50, MUP hydrolysis) [nM] | EC50 (LCAT R244H; [5]) [nM] | EC50 (LCAT R244A; [5]) [nM]
O=c1cc(C(F)(F)F)c2c(ncn2C2CCN(c3cnc(C(F)(F)F)cn3)CC2)[nH]1 [compound 8, 7-(trifluoromethyl)−1-(1-(5-(trifluoromethyl)pyrazin-2-yl)piperidin-4-yl)−1H-imidazo[4,5-b]pyridin-5(4H)-one] | 3.7 fold and 3.7 ± 0.9 fold | 4600 ± 60 | 2.8 ± 0.6 fold | > 10000 | 3.2 ± 0.8 fold | > 10000 | > 10000 | 1.2 ± 0.1 fold | – | – | – | – | – | – | –
O=C1CC(O)(C(F)(F)F)c2c(ncn2C2CCNCC2)N1 (stereo not drawn) [compound 6, 7-Hydroxy-1-(piperidin-4-yl)−7-(trifluoromethyl)−6,7-dihydro-1H-imidazo[4,5-b]pyridin-5(4H)-one] | no activating effect | – | no effect | – | no effect | – | – | no effect | no effect | no effect | no effect | no effect | – | – | –
O=C1CC(O)(C(F)(F)F)c2c(ncn2C2CCN(c3cnc(C(F)(F)F)cn3)CC2)N1 (stereo not drawn) [compound 3, 7-Hydroxy-7-(trifluoromethyl)−1-(1-(5-(trifluoromethyl)pyrazin-2-yl)piperidin-4-yl)−6,7-dihydro-1H-imidazo[4,5-b]pyridin-5(4H)-one] | – | 320 ± 50 | 1.8 ± 0.1 fold | 470 ± 50 | 1.9 ± 0.2 fold | 400 ± 30 | > 5000 | 1.5 ± 0.2 fold | – | – | – | – | – | – | –

Next, values leading:

Fold activation, MUP esterase assay (WT LCAT; [1]) | EC50 (WT LCAT; [2]) [nM] | Fold activation, MUP esterase assay (LCAT R244H; [3]) | EC50 (LCAT R244H; [4]) [nM] | Fold activation, MUP esterase assay (LCAT R244A; [3]) | EC50 (LCAT R244A; [4]) [nM] | EC50 (LCAT G71I) [nM] | Fold activation, MUP esterase assay (LCAT G71I) | MUP assay EC50 (WT LCAT; [1]) | MUP assay EC50 (LCAT R244H; [3]) | MUP assay EC50 (LCAT R244A; [3]) | MUP assay EC50 (LCAT G71I) | EC50 (WT LCAT; full-length WT LCAT, read-out: EC50, MUP hydrolysis) [nM] | EC50 (LCAT R244H; [5]) [nM] | EC50 (LCAT R244A; [5]) [nM] | SMILES
1.6 fold and 1.6 ± 0.2 fold | 7700 ± 2000 | 1.3 ± 0.06 fold | 7600 ± 1000 | 1.2 ± 0.1 fold | 6200 ± 800 | – | 0.96 ± 0.01 fold | – | – | – | no effect | – | – | – | O=C1CC(O)(C(F)(F)F)c2c(C3CCN(c4cnc(C(F)(F)F)cn4)CC3)noc2N1 (stereo not drawn) [compound 9, 4-hydroxy-4-(trifluoromethyl)−3-(1-(5-(trifluoromethyl)pyrazin-2-yl)piperidin-4-yl)−4,5-dihydroisoxazolo[5,4-b]pyridin-6(7H)-one]
– | 280 ± 40 | 1.8 ± 0.1 fold | 320 ± 30 | 1.9 ± 0.2 fold | 270 ± 40 | > 5000 | 1.7 ± 0.2 fold | – | – | – | – | – | – | – | O=C1CC(O)(C(F)(F)F)c2c(C3CCN(c4cnc(C(F)(F)F)cn4)CC3)n[nH]c2N1 (stereo not drawn) [compound 2, 4-Hydroxy-4-(trifluoromethyl)−3-(1-(5-(trifluoromethyl)pyrazin-2-yl)piperidin-4-yl)−4,5-dihydro-1H-pyrazolo[3,4-b]pyridin-6(7H)-one]
– | 160 ± 10 | 1.6 ± 0.3 fold | 160 ± 30 | 1.7 ± 0.4 fold | 130 ± 20 | > 5000 | 1.5 ± 0.4 fold | – | – | – | – | ~150 | ~150 | ~150 | N#Cc1cnc(N2CCC(c3n[nH]c4c3C(O)(C(F)(F)F)CC(=O)N4)CC2)cc1C(F)(F)F (stereo not drawn) [compound 1, 6-(4-(4-Hydroxy-6-oxo-4-(trifluoromethyl)−4,5,6,7-tetrahydro-1H-pyrazolo[3,4-b]pyridin-3-yl)piperidin-1-yl)−4-(trifluoromethyl)nicotinonitrile]
